Among the data in patent publication US9464062B2, “Disubstituted oxazolidin-2-ones 5-hydroxytryptamine receptor 2B activity modulators” (TEMPLE UNIVERSITY—OF THE COMMONWEALTH SYSTEM OF HIGHER …, priority 2012, dated 2016) are IC50 and inhibition values, retold here.

The assay addresses 5HT2B receptors (Homo sapiens (Human), UniProt P41595). Put plainly: Radiolabel Binding Studies for Serotonin 5HT2B receptors, method 1 ([3H]LSD competition). The following applies: for IC50: [3H]LSD radioligand; for inhibition at 10 µM: single concentration 10 uM, inhibition of [3H]LSD binding, read-out: 5-HT2B % inhib @10 uM. How it is done:
A solution of the compound of the disclosure to be tested is prepared as a 1-mg/ml stock in Assay Buffer (50 mM Tris-HCl, 10 mM MgCl2, 1 mM EDTA, pH 7.4) or DMSO according to its solubility. A 1-mg/ml stock of the reference compound 5-hydroxytryptamine (5-HT) is also prepared as a positive control. Eleven dilutions (5× assay concentration) of the compound of the disclosure and 5-HT are prepared in the Assay Buffer by serial dilution to yield final corresponding assay concentrations ranging from […].
A stock concentration of 5 nM [^3H]LSD (lysergic acid diethyl amide) is prepared in Assay Buffer. Aliquots (50 μl) of radioligand are dispensed into the wells of a 96-well plate containing 100 μl of Assay Buffer. Duplicate 50-μl aliquots of the compound of the disclosure test and 5-HT positive control reference compound serial dilutions are added.
Membrane fractions of cells expressing recombinant 5HT2B receptors (50 μL) are dispensed into each well. The membranes are prepared from stably transfected c ell lines expressing 5HT2B receptors cultured on 10-cm plates by harvesting PBS-rinsed monolayers, resuspending and lysing the monolayers in chilled, hypotonic 50 mM Tris-HCl, pH 7.4, centrifuging at 20,000×g, decanting the supernatant and storing at −80° C. The membrane preparations are resuspended in 3 ml of chilled Assay Buffer and homogenized by several passages through a 26 gauge needle before use in the assay.
The 250-μl reactions are incubated at room temperature for 1.5 hours, then harvested by rapid filtration onto 0.3% polyethyleneimine-treated, 96-well filter mats using a 96-well Filtermate harvester. Four rapid 500-μl washes are performed with chilled Assay Buffer to reduce non-specific binding. The filter mats are dried, then scintillant is added to the filters and the radioactivity retained on the filters is counted in a scintillation counter.
Raw data (dpm) representing total radioligand binding (i.e., specific+non-specific binding) are plotted as a function of the logarithm of the molar concentration of the competitor (i.e., test or reference compound). Non-linear regression of the normalized (i.e., percent radioligand binding compared to that observed in the absence of test or reference compound) raw data is performed in […] (GraphPad Software, Inc.) using the built-in three parameter logistic model describing ligand competition binding to radioligand-labeled sites: y=bottom+[(top−bottom)/(1+[…])] where “bottom” is the residual radioligand binding measured in the presence of 10 μM reference compound (i.e., non-specific binding) and “top” is the total radioligand binding observed in the absence of competitor. The log IC50 (i.e., the log of the ligand concentration that reduces radioligand binding by 50%) is thus estimated from the data and used to obtain the Ki by applying the Cheng-Prusoff approximation: Ki=IC50/(1+[ligand]/KD) where “[ligand]” is the assay radioligand concentration and “KD” is the affinity constant of the radioligand for the target receptor.
Compounds of the disclosure are also screened at a single concentration of 10 μM using the same method described for the Radiolabel Binding Studies for Serotonin 5HT2B receptors, method 1 to determine the percent inhibition of [^3H]LSD binding.

Sequence of 5HT2B receptors (P41595 whole entry): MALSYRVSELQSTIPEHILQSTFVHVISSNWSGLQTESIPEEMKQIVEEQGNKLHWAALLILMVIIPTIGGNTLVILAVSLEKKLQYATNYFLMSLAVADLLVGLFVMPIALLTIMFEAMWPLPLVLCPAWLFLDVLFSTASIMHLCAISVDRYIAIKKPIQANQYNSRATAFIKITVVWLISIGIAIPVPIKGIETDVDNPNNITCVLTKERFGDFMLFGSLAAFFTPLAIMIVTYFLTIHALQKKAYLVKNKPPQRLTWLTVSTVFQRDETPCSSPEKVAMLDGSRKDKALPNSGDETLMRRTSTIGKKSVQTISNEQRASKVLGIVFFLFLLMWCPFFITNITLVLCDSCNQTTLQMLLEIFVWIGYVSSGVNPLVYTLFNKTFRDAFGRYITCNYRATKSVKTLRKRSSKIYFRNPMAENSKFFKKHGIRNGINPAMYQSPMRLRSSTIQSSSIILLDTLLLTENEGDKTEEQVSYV

`O=C1OC(CN2CCN(C(c3ccccc3)c3ccccc3)CC2)CN1C1CC1` (stereo not shown) [Entry 7]: the IC50 is 298 nM and the inhibition at 10 µM stood at 87.6%. For `CC(C)(C)N1CC(CN2CCN(C(c3ccccc3)c3ccccc3)CC2)OC1=O` (stereo not shown) [Entry 6] the same measures were 1870 nM and 59.3%.

`C=CCN1CC(CN2CCN(C(c3ccccc3)c3ccccc3)CC2)OC1=O` (stereo not shown) [Entry 1]: the half-maximal inhibitory concentration (IC50) stood at 126 nM and the inhibition at 10 µM is 91.1%. The matching figures for `CC(C)N1CC(CN2CCN(C(c3ccccc3)c3ccccc3)CC2)OC1=O` (stereo not shown) [Entry 3]: 274 nM and 84.9%. The matching figures for `O=C1OC(CN2CCN(C(c3ccccc3)c3ccccc3)CC2)CN1C1CCCC1` (stereo not shown) [Entry 5]: 41 nM and 94.1%. In the case of `O=C1OC(CN2CCN(C(c3ccccc3)c3ccccc3)CC2)CN1C1CCCCC1` (stereo not shown) [Entry 2], the inhibition at 10 µM stood at 91.4%. In the case of `O=C1OC(CN2CCN(C(c3ccccc3)c3ccccc3)CC2)CN1C1CCC1` (stereo not shown) [Entry 4], the IC50 was determined as 190 nM and the inhibition at 10 µM came to 87.3%.

In general, IC50 refers to the midpoint of a concentration-inhibition curve. Read a high IC50 as a need for much substance.
